The values below come from US8722864B2 (Nutek Pharma Ltd., priority 2010, dated 2014).

Data set [1] in a line: Water (D2O) solubility by 1H NMR against DSS standard. In kind it is physicochemical. Conditions: for solubility at 3 days: water, thermodynamic from solid. As to the method:
The method use involved stirring the sample in D2O for a period of 3 days, followed by filtration using a 0.2μ syringe filter. A measured volume of this saturated solution was diluted with a standard solution of DSS in D2O, and a ^1H NMR was taken. Integration of the DSS peaks compared to that of the analog would allow for the determination of its concentration, and thus the concentration of the saturated solution.

Data set [2] in a line: Solution stability (hydrolysis) in phosphate-buffered D2O at pD 5, 6, 7 monitored by 1H NMR. In kind it is physicochemical. The conditions noted are these: for stability to the pD's (in words): pD 5, 6, 7 in D2O; for Time to % hydrolysis t10% / Time to % hydrolysis t25% / Time to % hydrolysis t50%: 23° C.; for change in 1H NMR spectra: after 167 days, pD 5, 6, 7. As to the method:
10 mL (11.07 g) D2O was placed in 3 separate vials with a stir bar and 0.002 moles (0.272 g) monobasic potassium phosphate (KH2PO4) was added to each. With the pD metered, NaOD/D2O was added drop-wise to each to adjust the pD's to 5.0, 6.0, and 7.0. Each of these solutions was gently boiled before use. Thus each vial contained […] phosphate buffered solution. […] The sample was sterilized by heating for 10 seconds, and after it had cooled down to ambient temperature (about 1 minute), 0.3 mL of one of the 0.2 mM 3 buffered solutions was added. The 0.6 mL sample was then placed in a sterilized NMR tube and the tube sealed and labeled. Each of the samples was stored at 23° C. protected from the light and monitored by ^1H NMR (64 scans for each sample) periodically.

The next data set in a line: in vivo. The conditions noted are these: male, Sprague-Dawley, rat, iv.
The conditions of data set [3]: rat, in vivo, iv; for AUCinf/AUClast of the pro-drug: male, Sprague-Dawley.
Data set [4] is described as follows: Pharmacokinetics after intravenous administration in male Sprague-Dawley rats.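 As to all read-outs here: rats fasted overnight before dosing and fed about 4 h afterwards, with serial blood sampled through a carotid artery catheter at each time point.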 Conditions: for mean concentration of acetaminophen in rat plasma or blood: 66 μmol/kg nominal, plasma (blood for 18, 19).
The conditions of data set [5]: water; cited from earlier work.
The mark [6] stands for this setting: acetaminophen analyte after IV dose of acetaminophen or pro-drug, rat.
The mark [7] stands for this setting: stirred 3 days in D2O, 0.2 μ filtered.

“And” between values parts separate entries of the source, which are not always exact repeats. Equal entries are not always repeated.

The term solubility denotes the concentration that dissolves in the medium under given conditions. With `CC(=O)Nc1ccc(O[C@@H]2C=C[C@H](O)[C@@H](CO)O2)cc1` [compound 1, N-(4-((2R,5S,6R)-5-hydroxy-6-(hydroxymethyl)-5,6-dihydro-2H-pyran-2-yloxy)phenyl)acetamide], in data set [1], the relative molar solubility is on record as 0.6; the solubility at 3 days was 14000 µg/mL and 53000 µM. Besides, the “stability to the pD's (in words)” value in data set [2] is given as “least stable”. For the same molecule, in data set [2] (pD 5, D2O), the “Time to % hydrolysis t10%” value was found to be 0.3 days, the “Time to % hydrolysis t25%” value came out at 0.8 days and the “Time to % hydrolysis t50%” value is 2.0 days. Besides, in data set [2] (pD 6, D2O), the “Time to % hydrolysis t10%” value is recorded as 2.25 days, the “Time to % hydrolysis t25%” value stood at 6.25 days and the “Time to % hydrolysis t50%” value was determined as 17 days. For the same molecule, in data set [2] (pD 7, D2O), the “Time to % hydrolysis t10%” value was found to be 5.5 days, the “Time to % hydrolysis t25%” value is 26 days and the “Time to % hydrolysis t50%” value came out at 70 days.

For orientation: AUC(0-inf) means total exposure, with the tail of the curve extrapolated. A lower AUC(0-inf) goes with less exposure. Broadly, the AUC(0-t) is exposure summed from dosing to a finite time, without extrapolation to infinity. A high value points to high exposure. For orientation: MRT inf means the average time that molecules of a dose stay in the body. The term Vd denotes the apparent volume that relates the amount in the body to the concentration in plasma or blood. The low end stands for little distribution into tissue, the high end for wide distribution into tissue. For orientation: clearance means a measure of how efficiently the substance is removed, as volume per time. Read a high clearance as efficient removal. A word on the half-life: it is the time in which the quantity being followed falls by half. High values mean slow loss, low ones fast loss. With `CC(=O)Nc1ccc(O[C@H]2O[C@H](CO)[C@@H](O[C@H]3O[C@H](CO)[C@@H](O)[C@H](O)[C@H]3O)[C@H](O)[C@@H]2O)cc1` [compound 5, 1-(4-acetaminophenoxy) 2-epi maltose], in “in vivo”, the area under the curve AUC(0-inf) is 1.69 µM·h, the AUC(0-t) was determined as 1.57 µM·h, the C0 came out at 2.49 µM and the MRT inf was determined as 39.2 min. Besides, in “in vivo”, the Vd was 26.8 L/kg, the clearance is 759 mL/min/kg and the half-life is 79.2 min. Also, in data set [3], the “AUCinf/AUClast of the pro-drug” value was determined as 106%, the “AUC of the pro-drug (in words)” value is on record as “high” and the “half-lives of the pro-drug (in words)” value was “relatively high”. In data set [1], the relative molar solubility is more than 14; the “solubility (in words)” value is “highest solubility”; the solubility at 3 days is > 621000 µg/mL and > 1.3e+06 µM. Besides, the “change in 1H NMR spectra” value in data set [2] was “no change”.

Take `CC(=O)Nc1ccc(O[C@H]2O[C@H](CO)[C@@H](O)[C@H](O)[C@@H]2O)cc1` [compound 8, 1-(4′-acetamidophenoxy) mannose]: in “in vivo”, the AUC(0-inf) is 44.9 µM·h, the AUC(0-t) is 44.9 µM·h, the C0 stood at 336 µM and the MRT inf was 14.2 min. In the data set “in vivo”, this molecule showed a Vd of 0.349 L/kg, a clearance of 24.7 mL/min/kg and a half-life of 39.5 min. In addition, in data set [3], the “AUCinf/AUClast of the pro-drug” value worked out at 100% and the “AUC of the pro-drug (in words)” value is reported as “low”. In data set [1], the relative molar solubility is recorded as 1.8; the solubility at 3 days was 51000 µg/mL and 164000 µM. Further, the “change in 1H NMR spectra” value in data set [2] was “no change”.

Turning to `CC(=O)Nc1ccc(O[C@@H]2CCC(O)[C@@H](CO)O2)cc1` (some centres unmarked) [compound 12, 1-(4′-acetamidophenoxy) 2,3-dideoxy glucose], in data set [1], the relative molar solubility turned out to be 0.3; the solubility at 3 days is 9000 µg/mL and 31000 µM. Besides, in data set [2], the “stability to the pD's (in words)” value is “a lot of instability”. Besides, in data set [2] (pD 5, D2O), the “Time to % hydrolysis t10%” value is 7 days, the “Time to % hydrolysis t25%” value amounted to 20 days and the “Time to % hydrolysis t50%” value was determined as 58 days. In data set [2] (pD 6, D2O), the “Time to % hydrolysis t10%” value was 48 days.

In the data set “in vivo”, `CC(=O)Nc1ccc(O[C@H]2O[C@H](COC(C)=O)[C@@H](O)[C@H](O)[C@@H]2O)cc1` [compound 15] showed an AUC(0-inf) of 14.2 µM·h, an AUC(0-t) of 14.2 µM·h, a C0 of 95.8 µM and an MRT inf of 10.2 min. In “in vivo”, this molecule showed a Vd of 0.8 L/kg, a clearance of 78.7 mL/min/kg and a half-life of 13.2 min. Further, in data set [3], the “AUCinf/AUClast of the pro-drug” value was determined as 100% and the “AUC of the pro-drug (in words)” value is listed as “low”. In addition, in data set [1], the relative molar solubility was found to be 5.6; the solubility at 3 days was 203000 µg/mL and 570000 µM.

In the data set “in vivo”, `CCCC(=O)OC[C@H]1O[C@H](Oc2ccc(NC(C)=O)cc2)[C@@H](O)[C@@H](O)[C@@H]1O` [compound 18, 1-(4′-acetamidophenoxy)-6-O-butyrylmannose] displayed an AUC(0-inf) of 3.31 µM·h, an AUC(0-t) of 3.3 µM·h, a C0 of 43.1 µM and an MRT inf of 4.56 min. In the data set “in vivo”, the Vd came out at 1.56 L/kg, the clearance turned out to be 345 mL/min/kg and the half-life was 3.13 min. Also, in data set [3], the “AUCinf/AUClast of the pro-drug” value was 100% and the “AUC of the pro-drug (in words)” value was “low”. In data set [1], the relative molar solubility was 0.81; the solubility at 3 days was 30000 µg/mL and 77000 µM.

Consider `CC(=O)Nc1ccc(O[C@H]2O[C@H](COC(=O)C(C)C)[C@@H](O)[C@H](O)[C@@H]2O)cc1` [compound 19, 1-(4′-acetamidophenoxy)-6-O-isobutyrylmannose], for which, in the data set “in vivo”, the AUC(0-inf) is 3.68 µM·h, the AUC(0-t) was found to be 3.68 µM·h, the C0 was 31.1 µM and the MRT inf was 8.7 min. In addition, in “in vivo”, the Vd is 1.77 L/kg, the clearance worked out at 203 mL/min/kg and the half-life was 14.6 min. Further, in data set [3], the “AUCinf/AUClast of the pro-drug” value is recorded as 100% and the “AUC of the pro-drug (in words)” value was “low”. In data set [1], the relative molar solubility is reported as 0.43; the solubility at 3 days is 16000 µg/mL and 41000 µM.

In the data set “in vivo”, `CC(=O)Nc1ccc(O[C@H]2O[C@H](COC(=O)CCC(=O)O)[C@@H](O)[C@H](O)[C@@H]2O)cc1` [compound 20] came in with an AUC(0-inf) of 51.9 µM·h, an AUC(0-t) of 51.8 µM·h, a C0 of 218 µM and an MRT inf of 25.2 min. Further, in “in vivo”, the Vd stood at 0.549 L/kg, the clearance was 22.7 mL/min/kg and the half-life was 123 min. Moreover, in data set [3], the “AUCinf/AUClast of the pro-drug” value was 100%, the “AUC of the pro-drug (in words)” value is recorded as “high” and the “half-lives of the pro-drug (in words)” value is “relatively high”.

`CC(=O)Nc1ccc(O[C@H]2O[C@H](C)[C@@H](O)[C@H](O)[C@@H]2O)cc1` [compound 23, 1-(4′-acetamidophenoxy)-6-deoxymannose]: in “in vivo”, the AUC(0-inf) was found to be 44.1 µM·h, the AUC(0-t) amounted to 44 µM·h, the C0 is 123 µM and the MRT inf was determined as 52.7 min. For the same molecule, in “in vivo”, the Vd was 1.58 L/kg, the clearance was determined as 24.9 mL/min/kg and the half-life is 116 min. In data set [3], the “AUCinf/AUClast of the pro-drug” value came out at 100%, the “AUC of the pro-drug (in words)” value was “high” and the “half-lives of the pro-drug (in words)” value is “relatively high”. Besides, in data set [1], the relative molar solubility is reported as 2.1; the solubility at 3 days was 60000 µg/mL and 202000 µM.

For the molecule acetaminophen, the “mean concentration of acetaminophen in rat plasma or blood” value in data set [4] (2 min after IV dose of acetaminophen or pro-drug) worked out at 133.854 µM; in data set [4] (5 min after IV dose of acetaminophen or pro-drug) it was 89.75 µM; in data set [4] (0.250 h after IV dose of acetaminophen or pro-drug) it was 45.118 µM; in data set [4] (0.500 h after IV dose of acetaminophen or pro-drug), 23.661 µM; in data set [4] (2.00 h after IV dose of acetaminophen or pro-drug), 0.823 µM; in data set [4] (4.00 h after IV dose of acetaminophen or pro-drug), 0.528 µM. In addition, the “mean concentration of acetaminophen in rat plasma or blood” value in data set [4] (6.00 h after IV dose of acetaminophen or pro-drug) turned out to be 0.237 µM; in data set [4] (8.00 h after IV dose of acetaminophen or pro-drug), 0.108 µM. Further, in data set [4] (setting [6]), the AUCinf of acetaminophen was 41.231 µM·h. Moreover, the AUCinf/AUClast of acetaminophen in data set [4] (setting [6]) amounted to 100%. The molecule also came in with an AUClast of acetaminophen in data set [4] (setting [6]) of 41.031 µM·h. The MRTinf of acetaminophen in data set [4] (setting [6]) came out at 39.7 min. In data set [4] (setting [6]), this molecule yielded a Vdss of acetaminophen of 1.06 L/kg. Also, in data set [4] (setting [6]), the “t1/2 of acetaminophen from the pro-drug” value stood at 2.46 h. For the same molecule, the C0 in data set [4] (read-out: C0 of acetaminophen, acetaminophen analyte after IV dose of acetaminophen or pro-drug, extrapolated to time 0) is 175 µM. Also, in data set [5], the “literature value of acetaminophen's solubility” value is 14 mg/mL. In addition, the “D2O solubility (mM)” value in data set [1] (setting [7]) turned out to be 95 mM. Besides, the “D2O solubility (mg/mL)” value in data set [1] (setting [7]) is 13 mg/mL. Moreover, the “change in 1H NMR spectra” value in data set [2] is on record as “no change”.
